Assay results published in patent publication US5612476A, “Anti-endotoxin compounds” (priority 1995, dated 1997).
pIC50: −log10 of the molar value. Several values for one entry are separate records, joined by “and”; a condition that tells them apart may be missing. Identical values can stand only once.

Key:
[1] = system: LPS-induced TNF production; design: species or system C57BL/6 mice; conditions: mouse, iv
guinea pig macrophages = assay: cells; assay type: cell-based, Hartley-White guinea pig; conditions: for inhibition of LPS-induced TNF production: guinea pig macrophages, LPS 10 ng/ml, in words
mouse macrophages = assay: cells; assay type: cell-based, C57BL/6 mouse; conditions: for inhibition of LPS-induced TNF production: mouse macrophages, LPS 10 ng/ml, in words
[2] = system: LPS-induced TNF production; assay: In vivo inhibition of LPS-induced TNF production in guinea pigs; conditions: optimum ED50's
HIV LTR = assay: Suppression of LPS-stimulated HIV LTR activation in stably transfected U938 cell line (HIV-1 LTR-CAT); conditions: Human immunodeficiency virus 1, 24 h, read-out: IC50 for suppression of LPS-stimulated HIV LTR activation
Experimental: Experiments were carried out using one such stably-transfected cell line, i.e., the U938 cell line of Latham et al. (Cell. Immunol. 129:513, 1990). Cells were cultured as described in Latham et al. (1990, supra), and 10^6 cells were treated with a lipid A analog (at a concentration of between 0.0 and 1.0 μM). Thirty minutes after addition of the analog, cells were treated with phorbol myristate acetate (at a concentration of 0.33 ng/ml; described above) and E. coli 0111:B4 LPS (at a concentration of 33 ng/ml; described above). Cells were cultured for an additional 24 hours, harvested, and assayed for CAT activity as described above.

human monocytes = assay: In vitro inhibition of LPS-induced TNF production in human monocytes (ELISA); assay type: cell-based; conditions: Monocyte, E. coli 0111:B4 LPS 10 ng/ml, 3 h, read-out: ED50 for inhibition of LPS-induced production of TNF
Experimental: Both bacterial LPS and bacterial lipid A elicit production of tumor necrosis factor (TNF) and IL-1β in cultured human monocytes (J. Immunol. 139:429, 1987).
Monocytes were isolated from human blood by Percoll density gradient centrifugation, plated at approximately 1×10^6 cells/well on a 48-well plate in RPMI 1640 medium (GIBCO, Grand Island, N.Y.) containing 10% human serum (Sigma Chemical Co., St. Louis, Mo.) and incubated for two to three hours. Bacterial LPS (i.e., from E. coli 0111:B4; Sigma Chemicals, St. Louis, Mo.) at 10 ng/ml or lipid A (Daiichi Chemicals, Tokyo, Japan) at 1.0 ng/ml in RPMI 1640 medium were combined with 0.45 ml of RPMI 1640 medium containing 1% human serum and added to the cultured monocytes. In experiments involving a lipid A analog, the analog was added immediately before addition of LPS or lipid A in varying concentrations (e.g., between 0 and 100 μM in a 50 μl aliquot). Following a three-hour incubation period, a 0.1 ml aliquot of the culture supernatant was assayed for the presence of TNF and IL-1β. TNF and IL-1β were assayed using the ELISA assay of R & D Systems (Minneapolis, Minn.) and the instructions of the manufacturer, however, any other standard ELISA kits may be utilized, for example, the kit available from Genzyme, Cambridge, Mass. Experiments were performed in triplicate.

CCCCCC/C=C\CCCC(=O)O[C@H](CCCCCCC)CC(=O)O[C@@H]1[C@@H](NC(=O)CC(=O)CCCCCCCCCCC)[C@H](OC[C@H]2O[C@H](OP(=O)(O)O)[C@H](NC(=O)CC(=O)CCCCCCCCCCC)[C@@H](OC(=O)C[C@H](O)CCCCCCC)[C@@H]2O)O[C@H](CO)[C@H]1OP(=O)(O)O [Analog B214-31]
inhibition of TNF production in vivo [1]: inhibited TNF production

CCCCCC/C=C\CCCC(=O)O[C@H](CCCCCCC)CC(=O)O[C@@H]1[C@@H](NC(=O)CC(=O)CCCCCCCCCCC)[C@H](OC[C@H]2O[C@H](OP(=O)(O)O)[C@H](NC(=O)CC(=O)CCCCCCCCCCC)[C@@H](OC(=O)C[C@H](O)CCCCCCC)[C@@H]2O)O[C@H](CO)[C@H]1OP(=O)(O)O [Analog B214-32]
inhibition of LPS-induced TNF production (guinea pig macrophages): inhibited LPS-induced TNF production | inhibition of LPS-induced TNF production (mouse macrophages): inhibited LPS-induced TNF production | inhibition of TNF production in vivo [1]: inhibited TNF production | optimum ED50 for inhibition of LPS-induced TNF production in vivo [2]: 7.5 μg/guinea pig and 5 μg/guinea pig

CCCCCC/C=C\CCCC(=O)O[C@H](CCCCCCC)CC(=O)O[C@@H]1[C@@H](NC(=O)CC(=O)CCCCCCCCCCC)[C@H](OC[C@H]2O[C@H](OP(=O)(O)O)[C@H](NC(=O)CC(=O)CCCCCCCCCCC)[C@@H](OC(=O)C[C@H](O)CCCCCCC)[C@@H]2O)O[C@H](CO)[C@H]1OP(=O)(O)O [Analog B214-33]
inhibition of TNF production in vivo [1]: inhibited TNF production

CCCCCC/C=C\CCCC(=O)O[C@H](CCCCCCC)CC(=O)O[C@@H]1[C@@H](NC(=O)CC(=O)CCCCCCCCCCC)[C@H](OC[C@H]2O[C@H](OP(=O)(O)O)[C@H](NC(=O)C[C@H](O)CCCCCCCCCCC)[C@@H](OC(=O)C[C@H](O)CCCCCCC)[C@@H]2O)O[C@H](CO)[C@H]1OP(=O)(O)O [Analog B218-32]
inhibition of TNF production in vivo [1]: inhibited TNF production

CCCCCC/C=C\CCCC(=O)O[C@H](CCCCCCC)CC(=O)O[C@@H]1[C@@H](NC(=O)/C=C/CCCCCCCCCCC)[C@H](OC[C@H]2O[C@H](OP(=O)(O)O)[C@H](NC(=O)/C=C/CCCCCCCCCCC)[C@@H](OC(=O)C[C@H](O)CCCCCCC)[C@@H]2O)O[C@H](CO)[C@H]1OP(=O)(O)O [Analog B286-32]
inhibition of TNF production in vivo [1]: inhibited TNF production

CCCCCC/C=C\CCCCO[C@H](CCCCCCC)CC(=O)O[C@@H]1[C@@H](NC(=O)CC(=O)CCCCCCCCCCC)[C@H](OC[C@H]2O[C@H](OP(=O)(O)O)[C@H](NC(=O)CC(=O)CCCCCCCCCCC)[C@@H](OC(=O)C[C@H](O)CCCCCCC)[C@@H]2O)O[C@H](CO)[C@H]1OP(=O)(O)O [Analog B294-32]
inhibition of TNF production in vivo [1]: inhibited TNF production

CCCCCC/C=C\CCCC(=O)O[C@H](CCCCCCC)CC(=O)O[C@@H]1[C@@H](NC(=O)CC(=O)CCCCCCCCCCC)[C@H](OC[C@H]2O[C@H](OP(=O)(O)O)[C@H](NC(=O)/C=C/CCCCCCCCCCC)[C@@H](OC(=O)C[C@H](O)CCCCCCC)[C@@H]2O)O[C@H](CO)[C@H]1OP(=O)(O)O [Analog B313-32]
inhibition of TNF production in vivo [1]: inhibited TNF production

CCCCCC/C=C\CCNC(=O)O[C@H](CCCCCCC)CC(=O)O[C@@H]1[C@@H](NC(=O)CC(=O)CCCCCCCCCCC)[C@H](OC[C@H]2O[C@H](OP(=O)(O)O)[C@H](NC(=O)CC(=O)CCCCCCCCCCC)[C@@H](OC(=O)C[C@H](O)CCCCCCC)[C@@H]2O)O[C@H](CO)[C@H]1OP(=O)(O)O [Analog B379-32]
inhibition of TNF production in vivo [1]: inhibited TNF production

CCCCCCC/C=C/C(=O)O[C@@H]1[C@@H](NC(=O)CC(=O)CCCCCCCCCCC)[C@H](OC[C@H]2O[C@H](OP(=O)(O)O)[C@H](NC(=O)CC(=O)CCCCCCCCCCC)[C@@H](OC(=O)C[C@H](O)CCCCCCC)[C@@H]2O)O[C@H](CO)[C@H]1OP(=O)(O)O [Analog B400-32]
inhibition of TNF production in vivo [1]: inhibited TNF production | pIC50 (HIV LTR): 6.59 to 7.82

CCCCCC/C=C\CCCC(=O)O[C@H](CCCCCCC)CC(=O)O[C@@H]1[C@@H](NC(=O)CC(=O)CCCCCCCCCCC)[C@H](OC[C@H]2O[C@H](OP(=O)(O)O)[C@H](NC(=O)CC(=O)CCCCCCCCCCC)[C@@H](OCC[C@H](O)CCCCCCC)[C@@H]2O)O[C@H](CO)[C@H]1OP(=O)(O)O [Analog B410-32]
inhibition of LPS-induced TNF production (guinea pig macrophages): inhibited LPS-induced TNF production | inhibition of LPS-induced TNF production (mouse macrophages): inhibited LPS-induced TNF production | inhibition of TNF production in vivo [1]: inhibited TNF production

CCCCCC/C=C\CCCC(=O)O[C@H](CCCCCCC)CC(=O)O[C@@H]1[C@@H](NC(=O)CS(=O)(=O)CCCCCCCCCCC)[C@H](OC[C@H]2O[C@H](OP(=O)(O)O)[C@H](NC(=O)CS(=O)(=O)CCCCCCCCCCC)[C@@H](OC(=O)C[C@H](O)CCCCCCC)[C@@H]2O)O[C@H](CO)[C@H]1OP(=O)(O)O [Analog B425-32]
inhibition of TNF production in vivo [1]: inhibited TNF production

CCCCCC/C=C\CCCC(=O)O[C@H](CCCCCCC)CC(=O)O[C@@H]1[C@@H](NC(=O)CC(=O)CCCCCCCCCCC)[C@@H](OC[C@H]2O[C@H](OP(=O)(O)O)[C@H](NC(=O)CC(=O)CCCCCCCCCCC)[C@@H](OC(=O)C[C@H](O)CCCCCCC)[C@@H]2O)O[C@H](CO)[C@H]1OP(=O)(O)O [Analog B426-32]
inhibition of TNF production in vivo [1]: inhibited TNF production

CCCCCC/C=C\CCCC(=O)O[C@H](CCCCCCC)CCO[C@@H]1[C@@H](NC(=O)CC(=O)CCCCCCCCCCC)[C@H](OC[C@H]2O[C@H](OP(=O)(O)O)[C@H](NC(=O)CC(=O)CCCCCCCCCCC)[C@@H](OCC[C@H](O)CCCCCCC)[C@@H]2O)O[C@H](CO)[C@H]1OP(=O)(O)O [Analog B427-32]
inhibition of LPS-induced TNF production (guinea pig macrophages): inhibited LPS-induced TNF production | inhibition of LPS-induced TNF production (mouse macrophages): inhibited LPS-induced TNF production | pIC50 (HIV LTR): 6.59 to 7.82

CCCCCC/C=C\CCCC(=O)O[C@H](CCCCCCC)CCO[C@@H]1[C@@H](NC(=O)C[S+]([O-])CCCCCCCCCCC)[C@H](OC[C@H]2O[C@H](OP(=O)(O)O)[C@H](NC(=O)C[S+]([O-])CCCCCCCCCCC)[C@@H](OCC[C@H](O)CCCCCCC)[C@@H]2O)O[C@H](CO)[C@H]1OP(=O)(O)O (stereo partly shown) [Analog B459-32]
inhibition of LPS-induced TNF production (guinea pig macrophages): inhibited LPS-induced TNF production | inhibition of LPS-induced TNF production (mouse macrophages): inhibited LPS-induced TNF production

CCCCCC/C=C\CCCC(=O)O[C@H](CCCCCCCC)CCO[C@@H]1[C@@H](NC(=O)CC(=O)CCCCCCCCCCC)[C@H](OC[C@H]2O[C@H](OP(=O)(O)O)[C@H](NC(=O)CC(=O)CCCCCCCCCCC)[C@@H](OCC[C@H](O)CCCCCCCC)[C@@H]2O)O[C@H](COC)[C@H]1OP(=O)(O)O [Analog B464-32]
inhibition of LPS-induced TNF production (guinea pig macrophages): inhibited LPS-induced TNF production | inhibition of LPS-induced TNF production (mouse macrophages): inhibited LPS-induced TNF production

CCCCCC/C=C\CCCC(=O)O[C@H](CCCCCCC)CCO[C@@H]1[C@@H](NC(=O)CC(=O)CCCCCCCCCCC)[C@H](OC[C@H]2O[C@H](OP(=O)(O)O)[C@H](NC(=O)CC(=O)CCCCCCCCCCC)[C@@H](OCC[C@H](O)CCCCCCC)[C@@H]2O)O[C@H](COC)[C@H]1OP(=O)(O)O [Analog B531-35]
pIC50 (human monocytes): ~10.70 | pIC50 (guinea pig macrophages; Cavia porcellus, Macrophage, 3 h, read-out: ED50 for inhibition of LPS-induced TNF production): 9.18 | pIC50 (mouse macrophages; Mus musculus, Macrophage, 3 h, read-out: ED50 for inhibition of LPS-induced TNF production): 8.65 | ED50 for inhibition of TNF production in vivo [1]: 16.2 μg/mouse

CCCCCC/C=C\CCCC(=O)O[C@H](CCCCCCC)CCO[C@@H]1[C@@H](NC(=O)CC(=O)CCCCCCCCCCC)[C@H](OC[C@H]2O[C@H](OP(=O)(O)O)[C@H](NC(=O)CC(=O)CCCCCCCCCCC)[C@@H](OCC[C@H](O)CCCCCCC)[C@@H]2OC(C)=O)O[C@H](COC)[C@H]1OP(=O)(O)O [Analog B718-35]
inhibition of LPS-induced TNF production (guinea pig macrophages): inhibited LPS-induced TNF production | inhibition of LPS-induced TNF production (mouse macrophages): inhibited LPS-induced TNF production
